Key:
hPPARα = molecular target: T1, hPPARα (Homo sapiens, UniProt Q07869); assay: Gal4-hPPARα chimera transactivation in COS-7 cells (luciferase); type: cell-based; conditions: induction factor standardised to an internal reference, read-out: % hGal4-PPAR transactivation (10 μM) alpha
T1 construct: fragments of DNA amplified by PCR corresponding to the DEF domains of the human PPARα, PPARγ PPARδ nuclear receptors; expressed in transfected cells; host or cells: COS-7 (monkey kidney fibroblast line)
T1 sequence (Q07869 239-466 limits assumed): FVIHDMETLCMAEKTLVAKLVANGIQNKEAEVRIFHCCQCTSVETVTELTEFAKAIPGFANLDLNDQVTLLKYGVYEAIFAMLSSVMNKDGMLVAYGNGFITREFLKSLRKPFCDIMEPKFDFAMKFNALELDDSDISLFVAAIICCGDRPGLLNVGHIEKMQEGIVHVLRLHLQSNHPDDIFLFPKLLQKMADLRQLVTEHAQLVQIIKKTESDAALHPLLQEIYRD
Protocol: (§1) The PPAR activation was evaluated in vitro on a monkey kidney fibroblast line (COS-7) by measuring the transcriptional activity of chimeras constituted of the DNA binding domain of the Gal4 transcription factor of yeast and of the binding domain to the ligand of the different PPARs. The compounds were tested at doses between 0.01 and 100 μM on Gal4-PPARα, γ, δ chimeras. The induction factor (ratio between the luminescence induced by the compound and the luminescence induced by the control) was measured for each condition: the higher this factor, the more the compound has PPAR-activating properties.
(§2) The COS-7 cells from ATCC were cultivated in a DMEM medium supplemented with 10% (vol/vol) of foetal calf serum, 100 U/ml penicillin (Gibco, Paisley, UK) and 2 mM L-Glutamine (Gibco, Paisley, UK). The cells were incubated at 37° C. in a humid atmosphere containing 5% CO2.
(§3) The Gal4(RE)_TkpGL3, pGal4-hPPARα, pGal4-hPPARγ, pGal4-hPPARδ and pGal4-φ plasmids have been described in the literature (Raspe, Madsen et al. 1999). The pGal4-hPPARα, pGal4-hPPARγ and pGal4-hPPARδ constructs were obtained by cloning in the pGal4-φ vector of fragments of DNA amplified by PCR corresponding to the DEF domains of the human PPARα, PPARγ PPARδ nuclear receptors.
(§4) COS-7 cells were plated in 96 wells plates (5×10^4 cells/well) and transfected, in the presence of 10% foetal calf serum and 150 ng DNA per well, with a pGal4-PPAR/Gal4(RE)_TkpGL3 ratio of 1/10. The cells were then incubated for 24 hours with the compounds to be tested, without serum. At the end of the experiment, the cells were lysed and the luciferase activities were determined by means of Steady Glow Luciferase (Promega) according to the supplier's recommendations.
(§5) The inventive compounds were tested at 10 μM on the 3 PPAR isoforms. The results obtained are detailed in table (1). The transactivation measured is expressed as a response ratio versus an internal reference for each of the isoforms.
(§6) The compounds were tested at 10 μM on the Gal4-PPARα, γ, δ chimeras. The induction factor, i.e. the ratio between the luminescence induced by the compound and the luminescence induced by the control, was measured for each condition. It was then standardised in comparison to an internal reference and the results were then expressed in percentages : the higher the activation percentage, the more the compound has PPAR-activating properties.

hPPARα, hPPARγ, hPPARδ = assay: Gal4-hPPAR α/γ/δ transactivation: isoform selectivity and dose dependence; type: cell-based, human; conditions: 10 μM
Protocol: as §1, §3, §4
The inventive compounds were tested at doses between 0.01 and 100 μM on the 3 PPAR isoforms. The results obtained are detailed in FIGURES (1a), (1b) and (1c): evolution of the transactivation levels according to the dose for the three PPAR sub-types (α, γ, and δ respectively).

hPPARδ = molecular target: T2, hPPARδ (Homo sapiens, UniProt Q03181); assay: Gal4-hPPARδ chimera transactivation in COS-7 cells (luciferase); type: cell-based; conditions: induction factor standardised to an internal reference, read-out: % hGal4-PPAR transactivation (10 μM) delta
T2 construct: fragments of DNA amplified by PCR corresponding to the DEF domains of the human PPARα, PPARγ PPARδ nuclear receptors; expressed in transfected cells; host or cells: COS-7 (monkey kidney fibroblast line)
T2 sequence (Q03181 211-439 limits assumed): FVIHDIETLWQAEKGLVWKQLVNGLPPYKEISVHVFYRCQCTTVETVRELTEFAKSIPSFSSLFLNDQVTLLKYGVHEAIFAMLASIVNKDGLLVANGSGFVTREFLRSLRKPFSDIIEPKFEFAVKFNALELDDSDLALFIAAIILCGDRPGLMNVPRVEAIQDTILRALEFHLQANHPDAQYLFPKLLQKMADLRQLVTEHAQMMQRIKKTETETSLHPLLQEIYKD
Protocol: as §1, §2, §3, §4, §5, §6

hPPARγ = molecular target: T3, hPPARγ (Homo sapiens, UniProt P37231); assay: Gal4-hPPARγ chimera transactivation in COS-7 cells (luciferase); type: cell-based; conditions: induction factor standardised to an internal reference, read-out: % hGal4-PPAR transactivation (10 μM) gamma
T3 construct: fragments of DNA amplified by PCR corresponding to the DEF domains of the human PPARα, PPARγ PPARδ nuclear receptors; expressed in transfected cells; host or cells: COS-7 (monkey kidney fibroblast line)
T3 sequence (P37231 238-503 limits assumed): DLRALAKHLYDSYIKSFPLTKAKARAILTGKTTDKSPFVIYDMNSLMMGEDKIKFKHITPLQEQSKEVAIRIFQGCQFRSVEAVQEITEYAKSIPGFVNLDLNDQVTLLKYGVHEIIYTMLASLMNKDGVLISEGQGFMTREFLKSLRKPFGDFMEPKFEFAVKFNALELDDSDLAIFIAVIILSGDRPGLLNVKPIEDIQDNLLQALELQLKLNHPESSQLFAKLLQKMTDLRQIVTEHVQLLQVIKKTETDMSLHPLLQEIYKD
Protocol: as §1, §2, §3, §4, §5, §6

[1] = molecular target: T4, ATP-dependent potassium channels (K+ATP) (Rattus norvegicus, UniProt Q09429); assay: [3H]glibenclamide binding to ATP-dependent potassium channels of rat cerebral cortex; conditions: 1 h; 300 nM; specific displacement of [3H]glibenclamide 0.1 nM; read-out: KATP binding (300 nM)
T4 construct: the potassium channels derive from a rat's cerebral cortex; tissue CEREP; host or cells: rat cerebral cortex
T4 sequence (Q09429 whole entry): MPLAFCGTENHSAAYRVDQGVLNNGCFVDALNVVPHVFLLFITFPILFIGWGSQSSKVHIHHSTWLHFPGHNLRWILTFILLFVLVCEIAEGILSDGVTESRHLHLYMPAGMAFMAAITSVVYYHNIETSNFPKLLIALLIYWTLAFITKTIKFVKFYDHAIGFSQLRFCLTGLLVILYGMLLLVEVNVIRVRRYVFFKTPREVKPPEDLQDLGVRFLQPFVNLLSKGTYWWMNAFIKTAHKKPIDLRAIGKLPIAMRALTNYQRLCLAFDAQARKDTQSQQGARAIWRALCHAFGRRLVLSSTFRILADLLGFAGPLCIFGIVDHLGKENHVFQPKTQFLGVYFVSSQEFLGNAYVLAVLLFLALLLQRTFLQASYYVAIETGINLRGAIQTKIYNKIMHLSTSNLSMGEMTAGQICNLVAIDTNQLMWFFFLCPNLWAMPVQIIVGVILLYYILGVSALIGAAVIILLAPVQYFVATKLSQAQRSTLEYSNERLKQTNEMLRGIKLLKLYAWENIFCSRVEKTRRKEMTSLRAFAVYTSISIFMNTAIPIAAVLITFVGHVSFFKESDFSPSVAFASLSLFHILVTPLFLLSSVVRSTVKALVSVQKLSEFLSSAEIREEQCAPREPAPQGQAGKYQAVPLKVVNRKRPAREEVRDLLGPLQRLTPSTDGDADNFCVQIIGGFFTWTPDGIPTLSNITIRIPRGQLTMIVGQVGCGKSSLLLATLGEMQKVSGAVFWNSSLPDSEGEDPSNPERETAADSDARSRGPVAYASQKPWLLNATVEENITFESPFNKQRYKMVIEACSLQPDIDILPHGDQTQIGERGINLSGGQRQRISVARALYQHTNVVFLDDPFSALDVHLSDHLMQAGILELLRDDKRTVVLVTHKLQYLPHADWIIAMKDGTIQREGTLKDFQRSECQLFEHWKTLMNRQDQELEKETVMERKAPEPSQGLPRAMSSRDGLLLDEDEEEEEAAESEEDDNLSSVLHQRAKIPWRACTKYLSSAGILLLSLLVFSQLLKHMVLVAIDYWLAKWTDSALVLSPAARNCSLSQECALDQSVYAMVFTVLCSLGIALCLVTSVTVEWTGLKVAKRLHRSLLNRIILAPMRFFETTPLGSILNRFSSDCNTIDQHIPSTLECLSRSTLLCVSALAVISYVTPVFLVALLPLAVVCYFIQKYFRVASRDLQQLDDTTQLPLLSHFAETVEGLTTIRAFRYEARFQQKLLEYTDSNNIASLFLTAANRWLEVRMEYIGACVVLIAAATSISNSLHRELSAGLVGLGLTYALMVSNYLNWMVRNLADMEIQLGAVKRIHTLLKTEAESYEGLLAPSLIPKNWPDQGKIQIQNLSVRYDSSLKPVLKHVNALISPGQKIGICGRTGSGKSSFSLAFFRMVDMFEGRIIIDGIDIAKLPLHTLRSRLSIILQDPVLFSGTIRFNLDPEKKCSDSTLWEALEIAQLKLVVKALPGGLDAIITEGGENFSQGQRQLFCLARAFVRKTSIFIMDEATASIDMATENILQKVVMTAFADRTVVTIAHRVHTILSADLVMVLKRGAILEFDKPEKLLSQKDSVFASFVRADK
T4 sequence (P70673 whole entry partner): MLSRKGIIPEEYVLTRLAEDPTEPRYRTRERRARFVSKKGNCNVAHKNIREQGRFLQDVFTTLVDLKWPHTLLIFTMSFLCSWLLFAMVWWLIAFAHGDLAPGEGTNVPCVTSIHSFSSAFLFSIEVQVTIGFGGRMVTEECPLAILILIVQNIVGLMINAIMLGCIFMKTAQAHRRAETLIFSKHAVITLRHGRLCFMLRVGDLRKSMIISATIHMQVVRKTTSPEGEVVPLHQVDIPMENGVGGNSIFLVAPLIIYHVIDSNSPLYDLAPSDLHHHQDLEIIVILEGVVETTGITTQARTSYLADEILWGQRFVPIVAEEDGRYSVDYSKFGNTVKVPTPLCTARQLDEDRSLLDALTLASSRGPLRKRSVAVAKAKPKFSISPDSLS
Protocol: The results shown reflect the specific affinity of the inventive compounds on the ATP-dependent (K^+ATP) potassium channels. The specific binding measured corresponds to the difference between the total binding and the non-specific binding determined in the presence of an excess of non-marked reference ligand (glibenclamide 1 μM). The inventive compounds were tested at doses between 3 and 300 nM: the higher the percentage measured, the stronger the affinity of the compound for the ATP-dependent potassium channels.
The binding test was carried out at CEREP (Celle L'Evescault, France (86)) according to a protocol inspired by Angel et al. (Angel and Bidet 1991): the potassium channels derive from a rat's cerebral cortex and the reference compound is [^3H]glibenclamide at 0.1 nM. The protocol consists of incubation at 22° C. for one hour.

`CC(C)(Oc1ccc(CC(=O)NC(CC2CCCCC2)c2ccccc2N2CCCCC2)cc1)C(=O)O` (stereo not drawn) [Compound 19, 2-[4-[1-(2-cyclohexyl-1-(2-(1-piperidinyl)phenyl)ethyl)aminocarbonylmethyl]phenoxy]-2-methylpropanoic acid] was tested, and the activation at 10 µM (hPPARα) was less than 10%, the “selectivity with respect to PPAR isoforms” value (shortened to “selectivity”) (hPPARα, hPPARγ, hPPARδ) was “activates neither hPPARα nor hPPARδ” and the activation at 10 µM (hPPARδ) was less than 10%. It also gave an activation at 10 µM (hPPARγ) of 95%.
`CCCCC(NC(=O)Cc1ccc(OC(C)(C)C(=O)O)cc1)c1ccccc1Sc1ccccc1` (stereo not drawn) [Compound 36, 2-[4-[1-(1-(2-(phenylthio)phenyl)pentyl)aminocarbonylmethyl]phenoxy]-2-methylpropanoic acid] was tested, and the activation at 10 µM (hPPARα) was 54%, the “selectivity” value (hPPARα, hPPARγ, hPPARδ) was “activates hPPARα and hPPARγ, but not hPPARδ” and the inhibition at 0.3 µM [1] was 45%. For the same compound, the activation at 10 µM (hPPARδ) was less than 10% and the activation at 10 µM (hPPARγ) was 73%.
With `CC(C)CC(NC(=O)Cc1ccc(OC(C)(C)C(=O)O)cc1)c1ccc(-c2ccccc2)cc1N1CCCCC1` (stereo not drawn) [Compound 39, 2-[4-[1-(3-methyl-1-(2-(1-piperidinyl)-4-(phenyl)phenyl)butyl)aminocarbonylmethyl]phenoxy]-2-methylpropanoic acid] the activation at 10 µM (hPPARα) was 16%, the “selectivity” value (hPPARα, hPPARγ, hPPARδ) was “ligand of hPPARα, hPPARγ and hPPARδ” and the activation at 10 µM (hPPARδ) was 24%. The activation at 10 µM (hPPARγ) was 29%.
In the case of `CCCCC(NC(=O)Cc1ccc(OC(C)(C)C(=O)O)cc1)c1ccc(-n2cccc2)cc1N1CCCCC1` (stereo not drawn) [Compound 49, 2-[4-[1-(1-(2-(1-piperidinyl)-4-(1H-pyrrolyl)phenyl)pentyl)aminocarbonylmethyl]phenoxy]-2-methylpropanoic acid], the activation at 10 µM (hPPARα) is reported as less than 10%, the “selectivity” value (hPPARα, hPPARγ, hPPARδ) is reported as “activates hPPARγ and hPPARδ, but not hPPARα” and the activation at 10 µM (hPPARδ) is reported as 57%. It also gave an activation at 10 µM (hPPARγ) of 87%.
With `CCCCC(NC(=O)Cc1ccc(OC(C)(C)C(=O)NS(=O)(=O)C(F)(F)F)cc1)c1ccccc1N1CCCCC1` (stereo not drawn) [Compound 60, N-[trifluoromethylsulfonyl]-2-[4-[1-(1-(2-(1-piperidinyl)phenyl)pentyl)aminocarbonylmethyl]phenoxy]-2-methylpropanamide] the activation at 10 µM (hPPARα) was 46%, the “selectivity” value (hPPARα, hPPARγ, hPPARδ) was “hPPARα selective” and the inhibition at 0.3 µM [1] was 49%. It also gave an activation at 10 µM (hPPARδ) of less than 10% and an activation at 10 µM (hPPARγ) of less than 10%.
With `CC(C)CC(NC(=O)Cc1ccc(OC(C)(C)C(=O)NS(=O)(=O)c2ccccc2)cc1)c1ccccc1N1CCCCC1` (stereo not drawn) [Compound 64, N-[phenylsulfonyl]-2-[4-[1-(3-methyl-1-(2-(1-piperidinyl)phenyl)butyl)aminocarbonylmethyl]phenoxy]-2-methylpropanamide] the activation at 10 µM (hPPARα) was less than 10%, the inhibition at 0.3 µM [1] was 57% and the activation at 10 µM (hPPARδ) was less than 10%. It also gave an activation at 10 µM (hPPARγ) of 18%.
Compound `CCCC(NC(=O)Cc1ccc(OC(C)(C)C(=O)O)cc1)c1ccccc1N1CCCCC1` (stereo not drawn) [Compound 65, 2-[4-[1-(1-(2-(1-piperidinyl)phenyl)butyl)aminocarbonylmethyl]phenoxy]-2-methylpropanoic acid] has an activation at 10 µM (hPPARα) of less than 10%, an inhibition at 0.3 µM [1] of 90% and an activation at 10 µM (hPPARδ) of less than 10%. For the same compound, the activation at 10 µM (hPPARγ) was 50%.
